Measured values as given in article PMC9706486, “INOSITOL (1,3,4) TRIPHOSPHATE 5/6 KINASE1-dependent inositol polyphosphates regulate auxin responses in Arabidopsis” (Plant Physiology, 2022).

Columns and labels:
[1] = target: T1, TIR1–ASK1–IAA7 auxin receptor complex (ASK1–TIR1–Aux/IAA–IAA receptor complex) (Arabidopsis thaliana, UniProt Q570C0); experiment: auxin-dependent pull-down of ASK1–TIR1 with [3H]-InsP6 by His8-MBP-IAA7; format: binding; conditions: 0.1 uM IAA versus no auxin; pH 7.5, 4 °C; read-out is recovered [3H]-InsP6
T1 construct: ASK1–TIR1 co-purified from insect cells; IAA7 ORF as recombinant His8-MBP fusion (pET28-His8-MBP vector); mixed at molar ratio 1:3 (ASK1–TIR1 : IAA7); with SKP1-like protein 1A; Auxin-responsive protein IAA7
T1 sequence (Q570C0 1-594): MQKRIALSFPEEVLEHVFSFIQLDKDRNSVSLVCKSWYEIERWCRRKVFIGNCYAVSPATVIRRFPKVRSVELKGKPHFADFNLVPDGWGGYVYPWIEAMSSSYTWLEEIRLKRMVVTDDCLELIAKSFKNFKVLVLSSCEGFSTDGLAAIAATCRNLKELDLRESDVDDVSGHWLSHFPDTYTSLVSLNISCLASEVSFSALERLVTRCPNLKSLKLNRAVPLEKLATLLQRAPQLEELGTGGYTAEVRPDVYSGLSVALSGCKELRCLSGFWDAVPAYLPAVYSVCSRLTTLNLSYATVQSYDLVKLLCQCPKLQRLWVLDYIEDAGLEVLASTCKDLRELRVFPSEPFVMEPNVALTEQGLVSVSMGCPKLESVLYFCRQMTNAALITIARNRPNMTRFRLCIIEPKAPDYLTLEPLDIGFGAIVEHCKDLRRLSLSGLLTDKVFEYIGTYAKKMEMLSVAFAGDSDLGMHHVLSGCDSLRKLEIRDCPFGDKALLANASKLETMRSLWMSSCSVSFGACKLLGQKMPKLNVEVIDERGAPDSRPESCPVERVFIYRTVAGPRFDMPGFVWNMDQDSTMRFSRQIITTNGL
T1 sequence (Q39255 1-160 partner): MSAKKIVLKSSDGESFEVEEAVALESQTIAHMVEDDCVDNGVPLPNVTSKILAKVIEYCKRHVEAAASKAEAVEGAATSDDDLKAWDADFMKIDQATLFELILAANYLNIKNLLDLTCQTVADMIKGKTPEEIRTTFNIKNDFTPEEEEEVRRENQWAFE
T1 sequence (Q38825 1-243 partner): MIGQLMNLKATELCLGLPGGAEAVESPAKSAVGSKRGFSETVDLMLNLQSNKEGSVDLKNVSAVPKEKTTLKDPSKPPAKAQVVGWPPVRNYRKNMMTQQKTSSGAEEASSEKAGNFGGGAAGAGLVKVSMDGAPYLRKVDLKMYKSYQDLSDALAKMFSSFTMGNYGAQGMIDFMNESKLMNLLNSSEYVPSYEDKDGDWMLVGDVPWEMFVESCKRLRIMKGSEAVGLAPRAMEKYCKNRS

[2] = target: T1, TIR1–ASK1–IAA7 auxin receptor complex (ASK1–TIR1–Aux/IAA–IAA receptor complex); experiment: competitive radioligand displacement of [3H]-InsP6, Ni-NTA pull-down; format: binding

IC50 [2] [nM]	Compound	auxin-dependent pull-down of ASK1-TIR1 with [3H]-InsP6 by His8-MBP-IAA7 [1]
	O=C(O)Cc1c[nH]c2ccccc12 [IAA]	auxin is critical for the interaction between ASK–TIR1 and Aux/IAA protein
19	O=P(O)(O)O[C@H]1[C@H](OP(=O)(O)O)[C@@H](OP(=O)(O)O)[C@H](OP(=O)(O)O)[C@@H](OP(=O)(O)O)[C@H]1OP(=O)(O)O [InsP6]	
31	O=P(O)(O)O[C@@H]1[C@@H](OP(=O)(O)O)[C@H](OP(=O)(O)O)[C@@H](O)[C@@H](OP(=O)(O)O)[C@H]1OP(=O)(O)O [InsP5 [3-OH]]	
114	O=P(O)(O)O[C@@H]1[C@@H](OP(=O)(O)O)[C@@H](OP(=O)(O)O)[C@@H](O)[C@H](OP(=O)(O)O)[C@H]1OP(=O)(O)O [InsP5 [1-OH]]	
34	O=P(O)(O)O[C@H]1[C@@H](OP(=O)(O)O)[C@H](OP(=O)(O)O)[C@@H](O)[C@H](OP(=O)(O)O)[C@H]1OP(=O)(O)O [InsP5 [5-OH]]	
20	O=P(O)(O)O[C@H]1[C@@H](OP(=O)(O)O)[C@H](OP(=O)(O)O)[C@@H](OP(=O)(O)OP(=O)(O)O)[C@H](OP(=O)(O)O)[C@H]1OP(=O)(O)O [5-InsP7]	
